What all share (assay): biochemical
Holding throughout (type): biochemical

Experiment [1] concerns the target T1, 382 unique human kinases (Homo sapiens, UniProt Q8IW41).
T1 construct: purchased Reaction Biology (HotSpot contract assay)
T1 sequence (Q8IW41 1-473): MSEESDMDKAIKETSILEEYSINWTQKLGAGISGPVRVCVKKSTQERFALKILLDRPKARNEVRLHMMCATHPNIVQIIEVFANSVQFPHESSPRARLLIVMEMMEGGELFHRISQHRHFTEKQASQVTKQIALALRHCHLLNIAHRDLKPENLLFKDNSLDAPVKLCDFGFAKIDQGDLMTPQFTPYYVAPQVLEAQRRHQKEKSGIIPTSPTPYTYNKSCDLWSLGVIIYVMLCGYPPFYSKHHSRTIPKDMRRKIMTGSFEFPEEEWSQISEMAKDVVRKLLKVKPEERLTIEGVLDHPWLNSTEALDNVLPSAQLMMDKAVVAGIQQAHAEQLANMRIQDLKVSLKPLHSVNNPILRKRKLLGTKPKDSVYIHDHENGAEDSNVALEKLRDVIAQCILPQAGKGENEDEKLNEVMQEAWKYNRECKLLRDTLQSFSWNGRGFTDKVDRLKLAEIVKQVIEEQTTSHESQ
The conditions noted are these: MAPKAPK5/PRAK, compound at 10 uM, duplicate values; for remaining activity at 10 µM: read-out: % Enzyme Activity (relative to DMSO controls).

Experiment [2] deals with T2, 382 unique human kinases (Homo sapiens, UniProt Q04759).
T2 construct: purchased Reaction Biology (HotSpot contract assay)
T2 sequence (Q04759 whole entry): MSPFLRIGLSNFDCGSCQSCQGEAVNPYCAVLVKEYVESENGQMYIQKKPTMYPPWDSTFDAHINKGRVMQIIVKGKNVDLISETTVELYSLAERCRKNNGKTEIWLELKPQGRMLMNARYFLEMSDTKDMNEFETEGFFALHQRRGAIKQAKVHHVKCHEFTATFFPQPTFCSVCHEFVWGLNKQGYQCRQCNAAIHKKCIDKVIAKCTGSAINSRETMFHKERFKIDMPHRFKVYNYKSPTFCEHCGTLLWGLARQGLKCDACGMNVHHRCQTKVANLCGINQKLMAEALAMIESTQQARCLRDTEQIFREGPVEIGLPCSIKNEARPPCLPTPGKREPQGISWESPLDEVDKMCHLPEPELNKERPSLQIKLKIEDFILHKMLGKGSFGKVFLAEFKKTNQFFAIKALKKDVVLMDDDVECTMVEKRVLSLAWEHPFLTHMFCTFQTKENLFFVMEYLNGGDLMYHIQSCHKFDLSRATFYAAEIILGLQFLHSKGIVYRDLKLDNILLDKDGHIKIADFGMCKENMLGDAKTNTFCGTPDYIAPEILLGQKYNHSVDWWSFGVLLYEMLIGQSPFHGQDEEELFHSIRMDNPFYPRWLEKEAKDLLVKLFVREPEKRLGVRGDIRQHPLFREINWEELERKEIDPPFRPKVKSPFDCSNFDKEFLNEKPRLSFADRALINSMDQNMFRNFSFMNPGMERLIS
To be noted: PKCtheta, compound at 10 uM, duplicate values; for remaining activity at 10 µM: read-out: % Enzyme Activity (relative to DMSO controls).

Experiment [3] addresses T3, 382 unique human kinases (Homo sapiens, UniProt Q13131).
T3 construct: purchased Reaction Biology (HotSpot contract assay)
The conditions noted are these: for remaining activity at 10 µM: read-out: % Enzyme Activity (relative to DMSO controls).

In experiment [4] the target is T4, 382 unique human kinases (Homo sapiens, UniProt Q00535).
T4 construct: purchased Reaction Biology (HotSpot contract assay)
T4 sequence (Q00535 whole entry): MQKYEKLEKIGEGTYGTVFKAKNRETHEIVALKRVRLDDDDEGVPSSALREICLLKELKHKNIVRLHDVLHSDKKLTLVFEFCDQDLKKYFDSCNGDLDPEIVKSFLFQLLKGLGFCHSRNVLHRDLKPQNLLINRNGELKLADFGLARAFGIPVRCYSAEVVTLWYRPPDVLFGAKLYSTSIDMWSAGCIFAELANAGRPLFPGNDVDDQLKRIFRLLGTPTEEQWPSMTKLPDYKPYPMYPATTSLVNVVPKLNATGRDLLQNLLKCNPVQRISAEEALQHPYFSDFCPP
The conditions noted are these: for remaining activity at 10 µM: read-out: % Enzyme Activity (relative to DMSO controls).

Experiment [5] concerns the target T5, 382 unique human kinases (Homo sapiens, UniProt Q13188).
T5 construct: purchased Reaction Biology (HotSpot contract assay)
T5 sequence (Q13188 1-491): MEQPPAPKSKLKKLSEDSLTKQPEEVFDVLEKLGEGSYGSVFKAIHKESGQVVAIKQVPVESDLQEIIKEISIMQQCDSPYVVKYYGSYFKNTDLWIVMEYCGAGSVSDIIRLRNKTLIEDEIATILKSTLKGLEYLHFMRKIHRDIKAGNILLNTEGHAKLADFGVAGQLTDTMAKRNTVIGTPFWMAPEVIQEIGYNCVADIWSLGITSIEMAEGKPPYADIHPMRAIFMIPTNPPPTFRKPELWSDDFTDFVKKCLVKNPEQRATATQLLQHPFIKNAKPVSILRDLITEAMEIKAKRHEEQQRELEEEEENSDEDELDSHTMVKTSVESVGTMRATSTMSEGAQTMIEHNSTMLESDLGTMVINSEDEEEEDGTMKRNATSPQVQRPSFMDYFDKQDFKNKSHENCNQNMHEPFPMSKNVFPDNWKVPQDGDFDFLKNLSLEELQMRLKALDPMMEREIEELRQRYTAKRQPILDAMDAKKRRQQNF
To be noted: kinase MST2/STK3, compound 10 uM; for remaining activity at 10 µM: read-out: % Enzyme Activity (relative to DMSO controls).

The target of experiment [6] is T6, 382 unique human kinases (Homo sapiens, UniProt Q9BUB5).
T6 construct: purchased Reaction Biology (HotSpot contract assay)
T6 sequence (Q9BUB5 whole entry): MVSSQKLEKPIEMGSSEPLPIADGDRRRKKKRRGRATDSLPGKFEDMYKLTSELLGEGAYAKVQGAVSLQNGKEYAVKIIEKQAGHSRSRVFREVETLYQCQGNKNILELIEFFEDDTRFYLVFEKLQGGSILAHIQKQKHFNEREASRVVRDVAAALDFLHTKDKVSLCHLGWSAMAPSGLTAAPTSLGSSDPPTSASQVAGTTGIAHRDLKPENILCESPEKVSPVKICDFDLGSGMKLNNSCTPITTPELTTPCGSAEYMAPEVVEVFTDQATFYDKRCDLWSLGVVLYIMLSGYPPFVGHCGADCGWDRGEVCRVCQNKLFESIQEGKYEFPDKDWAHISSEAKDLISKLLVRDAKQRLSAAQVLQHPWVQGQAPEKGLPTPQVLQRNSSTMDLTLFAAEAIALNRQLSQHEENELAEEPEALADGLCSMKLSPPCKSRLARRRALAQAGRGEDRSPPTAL
The conditions noted are these: kinase MNK1, compound 10 uM; for remaining activity at 10 µM: read-out: % Enzyme Activity (relative to DMSO controls).

The target in experiment [7] is T7, 382 unique human kinases (Homo sapiens, UniProt Q6P2M8).
T7 construct: purchased Reaction Biology (HotSpot contract assay)
T7 sequence (Q6P2M8 whole entry): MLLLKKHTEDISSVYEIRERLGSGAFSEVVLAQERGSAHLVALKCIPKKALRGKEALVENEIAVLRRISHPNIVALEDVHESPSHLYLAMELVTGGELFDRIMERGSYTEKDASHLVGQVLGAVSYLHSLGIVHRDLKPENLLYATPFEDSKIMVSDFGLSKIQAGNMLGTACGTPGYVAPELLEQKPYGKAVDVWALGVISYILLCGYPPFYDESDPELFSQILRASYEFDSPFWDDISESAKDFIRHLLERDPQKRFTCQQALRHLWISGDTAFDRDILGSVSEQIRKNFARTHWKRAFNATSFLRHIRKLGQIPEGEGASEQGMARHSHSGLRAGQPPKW
To be noted: kinase CAMK1b, compound 10 uM; for remaining activity at 10 µM: read-out: % Enzyme Activity (relative to DMSO controls).

The target in experiment [8] is T8, 382 unique human kinases (Homo sapiens, UniProt Q9H3Y6).
T8 construct: purchased Reaction Biology (HotSpot contract assay)
T8 sequence (Q9H3Y6 whole entry): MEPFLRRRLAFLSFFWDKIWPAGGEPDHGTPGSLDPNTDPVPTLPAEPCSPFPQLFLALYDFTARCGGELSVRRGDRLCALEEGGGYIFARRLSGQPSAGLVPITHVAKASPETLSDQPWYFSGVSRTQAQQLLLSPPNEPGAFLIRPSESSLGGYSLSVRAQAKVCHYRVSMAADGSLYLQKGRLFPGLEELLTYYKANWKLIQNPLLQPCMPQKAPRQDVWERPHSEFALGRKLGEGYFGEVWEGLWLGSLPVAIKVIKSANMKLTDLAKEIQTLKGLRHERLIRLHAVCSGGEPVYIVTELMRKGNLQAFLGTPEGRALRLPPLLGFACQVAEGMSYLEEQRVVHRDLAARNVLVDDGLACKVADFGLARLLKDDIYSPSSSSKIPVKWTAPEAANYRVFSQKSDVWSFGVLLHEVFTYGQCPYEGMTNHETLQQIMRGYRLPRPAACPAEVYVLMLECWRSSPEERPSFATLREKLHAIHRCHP
To be noted: SRMS, compound at 10 uM, duplicate values; for remaining activity at 10 µM: read-out: % Enzyme Activity (relative to DMSO controls).

Experiment [9] deals with T9, 382 unique human kinases (Homo sapiens, UniProt Q9UKI8).
T9 construct: purchased Reaction Biology (HotSpot contract assay)
T9 sequence (Q9UKI8 1-766): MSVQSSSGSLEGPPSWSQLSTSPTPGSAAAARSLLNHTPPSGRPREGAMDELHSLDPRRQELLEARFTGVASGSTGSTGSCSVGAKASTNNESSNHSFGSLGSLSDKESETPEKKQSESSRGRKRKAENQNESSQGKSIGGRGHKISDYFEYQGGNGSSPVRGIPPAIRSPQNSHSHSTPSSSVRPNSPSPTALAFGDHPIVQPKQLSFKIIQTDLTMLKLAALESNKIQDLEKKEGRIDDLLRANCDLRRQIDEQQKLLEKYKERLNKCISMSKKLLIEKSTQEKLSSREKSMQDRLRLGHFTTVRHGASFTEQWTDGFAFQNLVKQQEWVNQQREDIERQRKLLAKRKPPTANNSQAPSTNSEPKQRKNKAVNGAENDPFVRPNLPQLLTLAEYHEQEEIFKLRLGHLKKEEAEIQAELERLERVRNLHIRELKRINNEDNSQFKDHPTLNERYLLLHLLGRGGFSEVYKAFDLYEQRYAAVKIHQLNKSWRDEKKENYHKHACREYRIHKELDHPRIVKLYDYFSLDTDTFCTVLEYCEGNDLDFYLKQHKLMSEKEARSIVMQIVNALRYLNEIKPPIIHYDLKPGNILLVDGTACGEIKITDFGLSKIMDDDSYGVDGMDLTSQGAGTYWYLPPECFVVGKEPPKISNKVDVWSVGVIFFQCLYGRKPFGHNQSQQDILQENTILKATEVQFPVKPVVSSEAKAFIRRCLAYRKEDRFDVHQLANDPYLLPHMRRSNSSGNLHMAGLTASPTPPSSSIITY
The conditions noted are these: TLK1, 10 uM; for remaining activity at 10 µM: read-out: % Enzyme Activity (relative to DMSO controls).

Experiment [10] has as its target T10, 382 unique human kinases (Homo sapiens, UniProt P08581, D1228H).
T10 construct: purchased Reaction Biology (HotSpot contract assay)
The conditions noted are these: c-MET (D1228H), 10 uM; for remaining activity at 10 µM: read-out: % Enzyme Activity (relative to DMSO controls).

For experiment [11], the target named is T11, 382 unique human kinases (Homo sapiens, UniProt Q16644).
T11 construct: purchased Reaction Biology (HotSpot contract assay)
T11 sequence (Q16644 whole entry): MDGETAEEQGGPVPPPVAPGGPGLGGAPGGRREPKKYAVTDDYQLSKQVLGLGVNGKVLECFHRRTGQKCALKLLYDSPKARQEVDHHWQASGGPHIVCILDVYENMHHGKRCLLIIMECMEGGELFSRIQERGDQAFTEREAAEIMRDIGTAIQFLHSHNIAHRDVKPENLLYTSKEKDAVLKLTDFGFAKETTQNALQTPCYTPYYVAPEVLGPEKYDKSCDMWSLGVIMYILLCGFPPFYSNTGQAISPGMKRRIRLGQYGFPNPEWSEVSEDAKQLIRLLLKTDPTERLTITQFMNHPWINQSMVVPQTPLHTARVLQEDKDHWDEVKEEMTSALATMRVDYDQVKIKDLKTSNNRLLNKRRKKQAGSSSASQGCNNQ
The conditions noted are these: MAPKAPK3, 10 uM; for remaining activity at 10 µM: read-out: % Enzyme Activity (relative to DMSO controls).

Experiment [12] concerns the target T12, 382 unique human kinases (Homo sapiens, UniProt P00533, G719S).
T12 construct: purchased Reaction Biology (HotSpot contract assay)
The conditions noted are these: EGFR (G719S), 10 uM; for remaining activity at 10 µM: read-out: % Enzyme Activity (relative to DMSO controls).

For experiment [13], the target named is T13, 382 unique human kinases (Homo sapiens, UniProt P57059).
T13 construct: purchased Reaction Biology (HotSpot contract assay)
T13 sequence (P57059 whole entry): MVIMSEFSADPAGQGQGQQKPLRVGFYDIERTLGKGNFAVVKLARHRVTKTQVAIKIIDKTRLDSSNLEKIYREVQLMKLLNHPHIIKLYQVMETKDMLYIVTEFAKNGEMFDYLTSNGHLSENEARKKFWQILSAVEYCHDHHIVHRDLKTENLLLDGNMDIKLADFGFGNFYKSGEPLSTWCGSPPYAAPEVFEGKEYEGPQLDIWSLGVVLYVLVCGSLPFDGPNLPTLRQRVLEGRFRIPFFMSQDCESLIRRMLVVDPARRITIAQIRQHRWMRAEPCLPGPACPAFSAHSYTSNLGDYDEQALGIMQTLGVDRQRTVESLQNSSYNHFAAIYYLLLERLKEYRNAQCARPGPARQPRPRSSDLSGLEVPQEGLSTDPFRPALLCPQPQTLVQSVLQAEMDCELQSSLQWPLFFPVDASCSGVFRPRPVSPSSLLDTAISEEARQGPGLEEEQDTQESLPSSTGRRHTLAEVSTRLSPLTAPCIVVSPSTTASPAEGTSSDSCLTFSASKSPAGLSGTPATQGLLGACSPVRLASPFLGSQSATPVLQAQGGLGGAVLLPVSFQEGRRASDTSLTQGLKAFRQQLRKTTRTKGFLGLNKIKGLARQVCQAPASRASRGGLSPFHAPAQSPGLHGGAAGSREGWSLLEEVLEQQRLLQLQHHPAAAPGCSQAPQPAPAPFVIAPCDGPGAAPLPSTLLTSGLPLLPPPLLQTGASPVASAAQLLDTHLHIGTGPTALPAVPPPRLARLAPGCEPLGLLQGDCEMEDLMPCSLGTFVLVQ
To be noted: SIK1, [ATP] 30 µM.

Experiment [14] addresses T14, 382 unique human kinases (Homo sapiens, UniProt Q06187, C481S).
T14 construct: purchased Reaction Biology (HotSpot contract assay)
The conditions noted are these: BTK (C481S), [ATP] 15 µM, compound 10 uM; for remaining activity at 10 µM: read-out: % Enzyme Activity (relative to DMSO controls).

[15] abbreviates: kinase AMPK(A1/B1/G3), compound 10 uM.
The mark [16] stands for this setting: kinase CDK5/p25, compound 10 uM.
Setting [17] is: compound 10 uM, read-out: % Enzyme Activity (relative to DMSO controls).

Read-outs that look alike come from different tables or passages of the source.

T3 sequence (Q13131 whole entry): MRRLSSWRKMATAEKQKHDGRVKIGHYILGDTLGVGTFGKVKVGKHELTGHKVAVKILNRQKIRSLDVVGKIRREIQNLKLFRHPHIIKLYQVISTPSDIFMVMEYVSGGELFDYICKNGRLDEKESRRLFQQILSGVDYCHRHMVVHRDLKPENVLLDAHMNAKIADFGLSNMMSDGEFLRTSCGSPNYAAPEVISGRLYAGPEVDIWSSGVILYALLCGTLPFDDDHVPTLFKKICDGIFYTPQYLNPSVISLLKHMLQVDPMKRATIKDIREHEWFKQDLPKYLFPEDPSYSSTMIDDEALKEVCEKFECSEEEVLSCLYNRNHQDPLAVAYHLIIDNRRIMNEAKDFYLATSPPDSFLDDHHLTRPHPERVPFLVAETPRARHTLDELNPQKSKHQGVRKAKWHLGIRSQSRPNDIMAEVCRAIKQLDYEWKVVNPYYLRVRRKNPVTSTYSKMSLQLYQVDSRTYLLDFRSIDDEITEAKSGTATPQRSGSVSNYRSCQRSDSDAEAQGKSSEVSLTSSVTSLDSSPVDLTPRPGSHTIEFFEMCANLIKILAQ
T14 sequence (Q06187 whole entry C481S): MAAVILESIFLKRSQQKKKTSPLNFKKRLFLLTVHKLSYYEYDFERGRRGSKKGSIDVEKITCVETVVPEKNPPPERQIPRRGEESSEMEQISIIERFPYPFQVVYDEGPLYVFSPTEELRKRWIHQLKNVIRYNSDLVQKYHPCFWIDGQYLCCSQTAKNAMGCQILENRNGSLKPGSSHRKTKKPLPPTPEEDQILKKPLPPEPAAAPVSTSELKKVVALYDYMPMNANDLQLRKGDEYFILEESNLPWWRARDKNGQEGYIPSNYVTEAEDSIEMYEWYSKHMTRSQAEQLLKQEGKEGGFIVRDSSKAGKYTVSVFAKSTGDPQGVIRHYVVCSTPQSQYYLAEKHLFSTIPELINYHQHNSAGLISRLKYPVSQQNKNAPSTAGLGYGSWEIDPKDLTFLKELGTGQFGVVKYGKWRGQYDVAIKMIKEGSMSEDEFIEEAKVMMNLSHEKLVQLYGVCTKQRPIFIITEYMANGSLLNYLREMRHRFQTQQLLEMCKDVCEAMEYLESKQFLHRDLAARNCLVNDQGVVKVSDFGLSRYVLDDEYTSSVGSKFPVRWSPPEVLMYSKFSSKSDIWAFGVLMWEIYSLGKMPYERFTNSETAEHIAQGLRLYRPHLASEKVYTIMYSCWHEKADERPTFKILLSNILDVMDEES

As for `CC(C)c1cc(-c2n[nH]c(=O)n2-c2ccc3c(ccn3C)c2)c(O)cc1O` [Ganetespib (STA9090)], the remaining activity at 10 µM at 382 unique human kinases [1] came to 102%; on 382 unique human kinases [2], 148%; on 382 unique human kinases [3] (AMPK(A1/B1/G1), 10 uM), 79.7%; at 382 unique human kinases [3] (AMPK(A1/B1/G2), 10 uM), 73.2%; on 382 unique human kinases [3] (AMPK(A1/B2/G1), 10 uM), 70.8%; on 382 unique human kinases [3] (setting [15]), 86.1%. Further, the remaining activity at 10 µM at 382 unique human kinases [4] (CDK5/p35, 10 uM) is 70.1%; on 382 unique human kinases [4] (setting [16]) it was 80.9%; at 382 unique human kinases [5], 78.8%; on 382 unique human kinases [6], 79.3%; on 382 unique human kinases [7], 83.4%; at 382 unique human kinases [8] it was 109%. Also, the remaining activity at 10 µM at 382 unique human kinases [9] amounted to 65.8%.

Consider `CC(C)c1cc(-c2n[nH]c(=O)n2-c2ccc3c(ccn3C)c2)c(O)cc1O` [Ganetespib], for which the remaining activity at 10 µM at 382 unique human kinases [10] is 98.6%; on 382 unique human kinases [11] it was 97.3%; at 382 unique human kinases [12], 99.7%; on 382 unique human kinases [13] (setting [17]), 11.4%; at 382 unique human kinases [14] it was 65%. On 382 unique human kinases [13] (compound 1 uM, read-out: % Enzyme Activity (relative to DMSO controls)), the remaining activity at 1 µM came to 75.9%.

`CCNC(=O)c1noc(-c2cc(C(C)C)c(O)cc2O)c1-c1ccc(CN2CCOCC2)cc1` [Luminespib (AUY-922)]: the “% Enzyme Activity (relative to DMSO controls)” value is 101.76% on 382 unique human kinases [1]; 101.70% at 382 unique human kinases [2]; 99.40% on 382 unique human kinases [3] (AMPK(A1/B1/G1), 10 uM); 104.49% at 382 unique human kinases [3] (AMPK(A1/B1/G2), 10 uM); 96.58% on 382 unique human kinases [3] (AMPK(A1/B2/G1), 10 uM); 118.21% at 382 unique human kinases [3] (setting [15]). For the same molecule, the “% Enzyme Activity (relative to DMSO controls)” value at 382 unique human kinases [4] (CDK5/p35, 10 uM) was determined as 102.70%; at 382 unique human kinases [4] (setting [16]), 102.12%; on 382 unique human kinases [5], 89.89%; at 382 unique human kinases [6], 105.09%; at 382 unique human kinases [7], 91.57%; at 382 unique human kinases [8], 110.03%. Further, on 382 unique human kinases [9], the “% Enzyme Activity (relative to DMSO controls)” value was determined as 84.15%. The remaining activity at 10 µM at 382 unique human kinases [1] turned out to be 104%; on 382 unique human kinases [2] it was 102%; at 382 unique human kinases [3] (AMPK(A1/B1/G1), 10 uM) it was 101%; at 382 unique human kinases [3] (AMPK(A1/B1/G2), 10 uM), 107%; at 382 unique human kinases [3] (AMPK(A1/B2/G1), 10 uM), 97.6%; at 382 unique human kinases [3] (setting [15]), 119%. For the same molecule, the remaining activity at 10 µM was determined as 103% on 382 unique human kinases [4] (CDK5/p35, 10 uM); 102% at 382 unique human kinases [4] (setting [16]); 93.3% on 382 unique human kinases [5]; 106% at 382 unique human kinases [6]; 94.9% on 382 unique human kinases [7]; 111% on 382 unique human kinases [8]. For the same molecule, the remaining activity at 10 µM at 382 unique human kinases [9] is 86.2%.

Turning to `CCNC(=O)c1noc(-c2cc(C(C)C)c(O)cc2O)c1-c1ccc(CN2CCOCC2)cc1` [Luminespib], the “% Enzyme Activity (relative to DMSO controls)” value on 382 unique human kinases [10] turned out to be 91.15%; on 382 unique human kinases [11], 103.47%; at 382 unique human kinases [12], 98.84%; at 382 unique human kinases [13] (compound 10 uM), 79.13%; at 382 unique human kinases [14], 41.81%. Further, the remaining activity at 10 µM on 382 unique human kinases [10] amounted to 92.4%; on 382 unique human kinases [11] it was 105%; on 382 unique human kinases [12], 99.4%; on 382 unique human kinases [13] (setting [17]), 80.3%; on 382 unique human kinases [14], 43.2%.

(Values after PMC8550792, “Evolution of kinase polypharmacology across HSP90 drug discovery” (Cell Chemical Biology, 2021).)
